Data taken from patent US9085603B2, “Progesterone receptor antagonists” (Bayer Intellectual Property GmbH, priority 2010, dated 2015).

Molecular target: T1, human progesterone receptor A (Homo sapiens, UniProt P06401)
T1 construct: expressed in transfected cells; host or cells: SK-N-MC human neuroblastoma cells, stably transfected with pRChPR-A-neo and pMMTV-LUC
T1 sequence (P06401 1-769 isoform P06401-2): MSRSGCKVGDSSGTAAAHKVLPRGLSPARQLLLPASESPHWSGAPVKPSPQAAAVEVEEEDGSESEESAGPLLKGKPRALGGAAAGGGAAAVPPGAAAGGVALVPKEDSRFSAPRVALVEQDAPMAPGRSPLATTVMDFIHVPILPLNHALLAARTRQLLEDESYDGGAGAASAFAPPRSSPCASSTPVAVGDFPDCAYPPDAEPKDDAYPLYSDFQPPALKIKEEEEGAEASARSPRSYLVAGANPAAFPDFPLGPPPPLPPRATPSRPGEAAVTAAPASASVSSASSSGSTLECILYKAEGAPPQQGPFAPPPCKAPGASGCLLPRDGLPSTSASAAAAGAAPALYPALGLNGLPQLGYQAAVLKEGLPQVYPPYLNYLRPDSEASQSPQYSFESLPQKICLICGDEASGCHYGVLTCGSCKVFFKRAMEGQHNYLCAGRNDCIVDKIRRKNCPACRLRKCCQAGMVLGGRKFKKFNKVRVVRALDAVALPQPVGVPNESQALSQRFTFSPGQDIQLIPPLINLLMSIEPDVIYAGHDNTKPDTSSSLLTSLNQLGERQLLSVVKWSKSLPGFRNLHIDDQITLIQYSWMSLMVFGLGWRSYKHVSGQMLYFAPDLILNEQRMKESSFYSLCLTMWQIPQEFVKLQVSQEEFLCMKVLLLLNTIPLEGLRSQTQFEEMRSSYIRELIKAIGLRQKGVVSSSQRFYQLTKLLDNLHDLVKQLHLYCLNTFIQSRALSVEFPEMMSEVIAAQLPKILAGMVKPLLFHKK
Assay: Progesterone receptor antagonistic effect in stably transfected SK-N-MC cells, MTV-LUC reporter (PR-A)
Type: cell-based
Details: antagonism of 0.1 nmol/l promegestone, luciferase reporter, 24 hours
Protocol: Progesterone Receptor Antagonistic Effect in Stable Transfectants of Human Neuroblastoma Cells (SK-N-MC cells) with the Human Progesterone A or Progesterone B Receptor and a MTV-LUC Reporter Construct
SK-N-MC cells (human neuroblastoma cells), which have been stably transfected with plasmids which express the human progesterone receptor B (pRChPR-B-neo) or the human progesterone receptor A (pRChPR-A-neo) and a reporter construct (pMMTV-LUC), were incubated for 24 hours either in the absence (negative control) or in the presence of increasing amounts of the particular test compound (0.01 nmol/l, 0.1 nmol/l, 1 nmol/l, 10 nmol/l, 100 nmol/l and 1 μmol/l) in order to determine the agonistic efficacy. As a positive control of the reporter gene induction, the cells were treated with the synthetic gestagen promegestone (0.01 nmol/l, 0.1 nmol/l, 1 nmol/l, 10 nmol/l, 100 nmol/l and 1 μmol/l). To determine the antagonistic activity, the cells were treated with 0.1 nmol/l of promegestone and additionally with increasing amounts of the particular test compound (0.01 nmol/l, 0.1 nmol/l, 1 nmol/l, 10 nmol/l, 100 nmol/l and 1 μmol/l). The activity of the reporter gene LUC (LUC=luciferase) was determined in the cell lysates and measured as RLU (relative light units). All measurement values are given as percentage efficacy and as EC50 or IC50 concentrations.

Row | SMILES | IC50 [nM]
1 | COC(=O)c1cccc(NCc2ccc([C@H]3C[C@@]4(C)[C@@H](CC[C@@]4(O)C(F)(F)C(F)(F)F)[C@@H]4CCC5=CC(=O)CCC5=C43)cc2)c1 [Example 39, Methyl 3-({4-[(11β,17β)-17-hydroxy-3-oxo-17-(pentafluoroethyl)estra-4,9-dien-11-yl]benzyl}amino)benzoate] | 1.77
2 | CN(C)CCN1CCN(Cc2ccc([C@H]3C[C@@]4(C)C(CC[C@@]4(O)C(F)(F)C(F)(F)F)C4CCC5=CC(=O)CCC5=C43)cc2)CC1 (stereo partly drawn) [Example 51, (11β,17β)-11-[4-({4-[2-(Dimethylamino)ethyl]piperazin-1-yl}methyl)phenyl]-17-hydroxy-17-(pentafluoroethyl)estra-4,9-dien-3-one] | 64.7
3 | C[C@]12C[C@H](c3ccc(CNCc4ccncc4)cc3)C3=C4CCC(=O)C=C4CC[C@H]3[C@@H]1CC[C@@]2(O)C(F)(F)C(F)(F)F [Example 47, (11β,17β)-17-Hydroxy-17-(pentafluoroethyl)-11-(4-{[(pyridin-4-ylmethyl)amino]methyl}phenyl)estra-4,9-dien-3-one] | 2.71
4 | CN(CCc1ccccc1)Cc1ccc([C@H]2C[C@@]3(C)[C@@H](CC[C@@]3(O)C(F)(F)C(F)(F)F)[C@@H]3CCC4=CC(=O)CCC4=C32)cc1 [Example 33, (11β,17β)-17-Hydroxy-11-(4-{[methyl(2-phenylethyl)amino]methyl}phenyl)-17-(pentafluoroethyl)estra-4,9-dien-3-one] | 5.57
5 | CN(Cc1ccc([C@H]2C[C@@]3(C)[C@@H](CC[C@@]3(O)C(F)(F)C(F)(F)F)[C@@H]3CCC4=CC(=O)CCC4=C32)cc1)c1ccccc1 [Example 48, (11β,17β)-17-Hydroxy-11-(4-{[methyl(phenyl)amino]methyl}phenyl)-17-(pentafluoroethyl)estra-4,9-dien-3-one] | 1.28
6 | COc1ccccc1NCc1ccc([C@H]2C[C@@]3(C)[C@@H](CC[C@@]3(O)C(F)(F)C(F)(F)F)[C@@H]3CCC4=CC(=O)CCC4=C32)cc1 [Example 21, (11β,17β)-17-Hydroxy-11-(4-{[(2-methoxyphenyl)amino]methyl}phenyl)-17-(pentafluoroethyl)estra-4,9-dien-3-one] | 6.06
7 | C[C@]12C[C@H](c3ccc(CN4CCN(Cc5ccccc5)CC4)cc3)C3=C4CCC(=O)C=C4CCC3C1CC[C@@]2(O)C(F)(F)C(F)(F)F (stereo partly drawn) [Example 31, (11β,17β)-11-{4-[(4-Benzylpiperazin-1-yl)methyl]phenyl}-17-hydroxy-17-(pentafluoroethyl)estra-4,9-dien-3-one] | 4.52
8 | C[C@]12C[C@H](c3ccc(CN4CCN(c5cnccn5)CC4)cc3)C3=C4CCC(=O)C=C4CC[C@H]3[C@@H]1CC[C@@]2(O)C(F)(F)C(F)(F)F [Example 35, (11β,17β)-17-Hydroxy-17-(pentafluoroethyl)-11-(4-{[4-(pyrazin-2-yl)piperazin-1-yl]methyl}phenyl)estra-4,9-dien-3-one] | 0.68
9 | C[C@]12C[C@H](c3ccc(CNc4ccccc4C(N)=O)cc3)C3=C4CCC(=O)C=C4CCC3C1CC[C@@]2(O)C(F)(F)C(F)(F)F (stereo partly drawn) [Example 49, 2-({4-[(11β,17β)-17-Hydroxy-3-oxo-17-(pentafluoroethyl)estra-4,9-dien-11-yl]benzyl}arnino)benzamide] | 1.29
10 | C[C@]12C[C@H](c3ccc(CN4CCCC4)cc3)C3=C4CCC(=O)C=C4CC[C@H]3[C@@H]1CC[C@@]2(O)C(F)(F)C(F)(F)F [Example 46, (11β,17β)-17-Hydroxy-17-(pentafluoroethyl)-11-[4-(pyrrolidin-1-ylmethyl)phenyl]estra-4,9-dien-3-one] | 37.4
11 | CN(C)C(=O)N1CCN(Cc2ccc([C@H]3C[C@@]4(C)[C@@H](CC[C@@]4(O)C(F)(F)C(F)(F)F)[C@@H]4CCC5=CC(=O)CCC5=C43)cc2)CC1 [Example 42, 4-{4-[(11β,17β)-17-Hydroxy-3-oxo-17-(pentafluoroethyl)estra-4,9-dien-11-yl]benzyl}-N,N-dimethylpiperazine-1-carboxamide] | 0.52
12 | C[C@]12C[C@H](c3ccc(CN4CCN(CCc5ccccc5)CC4)cc3)C3=C4CCC(=O)C=C4CC[C@H]3[C@@H]1CC[C@@]2(O)C(F)(F)C(F)(F)F [Example 34, (11β,17β)-17-Hydroxy-17-(pentafluoroethyl)-11-(4-{[4-(2-phenylethyl)piperazin-1-yl]methyl}phenyl)estra-4,9-dien-3-one] | 5.55
13 | C[C@]12C[C@H](c3ccc(CN4CCN(Cc5ccncc5)CC4)cc3)C3=C4CCC(=O)C=C4CC[C@H]3[C@@H]1CC[C@@]2(O)C(F)(F)C(F)(F)F [Example 37, (11β,17β)-17-Hydroxy-17-(pentafluoroethyl)-11-(4-{[4-(pyridin-4-ylmethyl)piperazin-1-yl]methyl}phenyl)estra-4,9-dien-3-one] | 2.33
14 | CN(C)CCN(C)Cc1ccc([C@H]2C[C@@]3(C)C(CC[C@@]3(O)C(F)(F)C(F)(F)F)C3CCC4=CC(=O)CCC4=C32)cc1 (stereo partly drawn) [Example 27, (11β,17β)-11-[4-({[2-(Dimethylamino)ethyl](methyl)amino}methyl)phenyl]-17-hydroxy-17-(pentafluoroethyl)estra-4,9-dien-3-one] | 3.52
15 | C[C@]12C[C@H](c3ccc(CNc4ccc(S(N)(=O)=O)cc4)cc3)C3=C4CCC(=O)C=C4CC[C@H]3[C@@H]1CC[C@@]2(O)C(F)(F)C(F)(F)F [Example 18, 4-({4-[(11β,17β)-17-Hydroxy-3-oxo-17-(pentafluoroethyl)estra-4,9-dien-11-yl]benzyl}amino)benzenesulphonamide] | 0.51
16 | C[C@]12C[C@H](c3ccc(CNc4cccc(S(N)(=O)=O)c4)cc3)C3=C4CCC(=O)C=C4CC[C@H]3[C@@H]1CC[C@@]2(O)C(F)(F)C(F)(F)F [Example 40, 3-({4-[(11β,17β)-17-Hydroxy-3-oxo-17-(pentafluoroethyl)estra-4,9-dien-11-yl]benzyl}amino)benzenesulphonamide] | 0.49
17 | COC(=O)c1ccc(NCc2ccc([C@H]3C[C@@]4(C)[C@@H](CC[C@@]4(O)C(F)(F)C(F)(F)F)[C@@H]4CCC5=CC(=O)CCC5=C43)cc2)cc1 [Example 29, Methyl 4-({4-[(11β,17β)-17-hydroxy-3-oxo-17-(pentafluoroethyl)estra-4,9-dien-11-yl]benzyl}amino)benzoate] | 1.19
18 | CCN(CC)Cc1ccc([C@H]2C[C@@]3(C)C(CC[C@@]3(O)C(F)(F)C(F)(F)F)C3CCC4=CC(=O)CCC4=C32)cc1 (stereo partly drawn) [Example 24, (11β,17β)-11-{4-[(Diethylamino)methyl]phenyl}-17-hydroxy-17-(pentafluoroethyl)estra-4,9-dien-3-one] | 51
19 | C[C@]12C[C@H](c3ccc(CN4CCC(c5ccccc5)CC4)cc3)C3=C4CCC(=O)C=C4CC[C@H]3[C@@H]1CC[C@@]2(O)C(F)(F)C(F)(F)F [Example 41, (11β,17β)-17-Hydroxy-17-(pentafluoroethyl)-11-{4-[(4-phenylpiperidin-1-yl)methyl]phenyl}estra-4,9-dien-3-one] | 11.2
20 | C[C@]12C[C@H](c3ccc(CN4CCc5ccccc5C4)cc3)C3=C4CCC(=O)C=C4CCC3C1CC[C@@]2(O)C(F)(F)C(F)(F)F (stereo partly drawn) [Example 30, (11β,17β)-11-[4-(3,4-Dihydroisoquinolin-2(1H)-ylmethyl)phenyl]-17-hydroxy-17-(pentafluoroethyl)estra-4,9-dien-3-one] | 2.35
21 | C[C@]12C[C@H](c3ccc(CNc4ccc(Cl)cc4)cc3)C3=C4CCC(=O)C=C4CCC3C1CC[C@@]2(O)C(F)(F)C(F)(F)F (stereo partly drawn) [Example 23, (11β,17β)-11-(4-{[(4-Chlorophenyl)amino]methyl}phenyl)-17-hydroxy-17-(pentafluoroethyl)estra-4,9-dien-3-one] | 2.07
22 | CN(CCc1ccccn1)Cc1ccc([C@H]2C[C@@]3(C)[C@@H](CC[C@@]3(O)C(F)(F)C(F)(F)F)[C@@H]3CCC4=CC(=O)CCC4=C32)cc1 [Example 52, (11β,17β)-17-Hydroxy-11-[4-({methyl[2-(pyridin-2-yl)ethyl]amino}methyl)phenyl]-17-(pentafluoroethyl)estra-4,9-dien-3-one] | 6.5
